From US8912169B2, “Beta-lactamase inhibitors” (VenatoRx Pharmaceuticals, Inc., priority 2012, dated 2014)
pIC50: −log10 of the molar value. Read-outs that look alike come from different tables or passages of the source.

Key:
Type in all cases: biochemical
SHV-5 = target: T1, SHV-5 (Klebsiella pneumoniae, UniProt P0A3M1); assay: β-lactamase enzyme inhibition, SHV-5
T1 construct: made in house; host or cells: E. coli BL21(DE3)
Method: (§1) For SHV-5, Kpc-2, p99AmpC and OXA-1 β-lactamases, E. coli BL21(DE3) bacterial cells carrying expression plasmids (expressed as native untagged proteins) for the individual β-lactamases were grown in 1 L of Superbroth (Teknova Inc. Hollister, Calif.) supplemented with 100 μg/mlkanamycin selection and 1×5052 (0.5% glycerol, 0.05% glucose and 0.2% α-lactose) at 35° C. for 18-20 hours. Cells were harvested by centrifugation (4,000×g, 4° C., 20 min), resuspended in 50 ml of 10 mM HEPES pH 7.5 ( 1/20 of the initial volume). The cells were lysed by sonication (5 pulses of 45 seconds) at 45 W on ice. The lysates were clarified by centrifugation at 10,000×g for 40 minutes at 4° C. Samples were diluted 5-fold in 50 mM sodium acetate pH 5.0, stored overnight at 4° C., after which they were centrifuged at 10,000×g for 30 minutes to clarify, and filtered through 0.45 μm filters. The samples were loaded onto a 5 ml Capto S sepharose cation exchange column (GE Healthcare) pre-equilibrated with 50 mM sodium acetate pH 5.0. The column was washed with 5 column volumes of 50 mM sodium acetate pH 5.0 to wash out unbound protein and a linear gradient of NaCl (0 to 500 mM) was used to elute the protein (over 16 CV) from the column. Fractions were assayed for β-lactamase activity using Centa (Calbiochem, Gibbstown, N.J.) or Nitrocefin (EMD Millipore chemicals, Darmstadt, Germany) as a reporter β-lactamase substrate for activity in the isolated fractions. Active fractions were pooled, concentrated and further purified by gel filtration chromatography on a Superdex 75 prep grade gel filtration column (GE Healthcare, Piscataway, N.J.) pre-equilibrated in 50 mM Hepes pH 7.5, 150 mM NaCl. Active fractions were pooled concentrated, quantitated by BCA protein determination (Thermo Scientific, Rockford, Ill.), dialyzed into PBS and frozen at −80° C. in 20% glycerol until use.
(§2) An equal volume of diluted enzyme stock was added, and the plates were incubated at 37° C. for 15 min. Nitrocefin was used as substrate for p99 AmpC, VIM-2 and OXA-1 and dispensed into each well at a final concentration of 100 μM. Absorbance at 486 nm was immediately monitored for 10 min using a Biotek Powerwave XS2 microplate spectrophotometer using the GENS software package (Biotek Instruments, Winooski Vt.). In an analogous fashion, imipenem was used as substrate for Kpc-2 and Cefotaxime was used for SHV-5, while changes in absorbance upon hydrolysis of the β-lactam ring were monitored at 300 nm and 260 nm respectively in UV-transparent 96-well microtiter assay plates. Maximum rates of hydrolysis were compared to those in control wells (without inhibitors), and percentages of enzyme inhibition were calculated for each concentration of inhibitor. The concentration of inhibitor needed to reduce the initial rate of hydrolysis of substrate by 50% (IC50) was calculated as the residual activity of β-lactamase at 486 nm using GraFit version 7 kinetics software package (Erithacus Software, Surrey, UK).
(§3) Using the methodology described above, examples of the current invention were evaluated for their ability to inhibit β-lactamase enzymes from all four Ambler classifications (A through D). […] NT=Not tested.

OXA-1 = target: T2, OXA-1 (Escherichia coli, UniProt P13661); assay: β-lactamase enzyme inhibition, OXA-1; conditions: substrate Nitrocefin 100 μM, 486 nm; read-out: Class D OXA-1 IC50
T2 construct: made in house; host or cells: E. coli BL21(DE3)
Method: as §1, §2, §3

KPC-2 = target: T3, KPC-2 (Klebsiella pneumoniae, UniProt Q9F663); assay: β-lactamase enzyme inhibition, KPC-2; conditions: substrate imipenem, 300 nm; read-out: Class A KPC-2 IC50
T3 construct: made in house; host or cells: E. coli BL21(DE3)
Method: as §1, §2, §3

VIM-2 = target: T4, VIM-2 (Escherichia coli, UniProt Q5U7L7); assay: β-lactamase enzyme inhibition, VIM-2; conditions: substrate Nitrocefin 100 μM, 486 nm; read-out: Class B VIM-2 IC50
T4 construct: made in house; host or cells: E. coli BL21(DE3)
Method: For Vim-2 metallo β-lactamase, the procedure was identical with the following exceptions, first the protein was not pH adjusted to pH 5 with 50 mM sodium acetate, second, the chromatography step was changed to a 5 ml Q sepharose anion exchange column pre-equilibrated with 50 mM Hepes pH 7.5, and elution of the protein was achieved by a linear gradient of NaCl (0-600 mM). Finally, the VIM-2 purification required a second run (3rd step) on the Q sepharose anion exchange column to achieve acceptable purity (>90%).
as §2, §3

p99 AmpC = target: T5, p99 AmpC (Enterobacter cloacae, UniProt P05364); assay: β-lactamase enzyme inhibition, p99 AmpC
T5 construct: made in house; host or cells: E. coli BL21(DE3)
Method: as §1, §2, §3

[1] = read-out: Class A SHV-5 IC50, substrate Cefotaxime, 260 nm

Compound | pIC50 (SHV-5) | pIC50 (OXA-1) | pIC50 (KPC-2) | pIC50 (VIM-2) | pIC50 (p99 AmpC) | pIC50 (SHV-5; [1])
COC(=O)NCCN[C@H]1CC[C@H](CC(=O)N[C@H]2Cc3cccc(C(=O)O)c3OB2O)CC1 [Example 54, (R)-2-hydroxy-3-(2-(trans-4-(2-(methoxycarbonylamino)ethylamino)cyclohexyl)acetamido)-3,4-dihydro-2H-benzo[e][1,2]oxaborinine-8-carboxylic acid] | > 7.00 | > 7.00 | > 7.00 | 6.00 to 7.00 | 6.00 to 7.00 | –
NCC(N)[C@H]1CC[C@H](CC(=O)N[C@H]2Cc3cccc(C(=O)O)c3OB2O)CC1 (stereo partly drawn) [Example 77, (R)-3-(2-(trans-4-(1,2-diaminoethyl)cyclohexyl)acetamido)-2-hydroxy-3,4-dihydro-2H-benzo[e][1,2]oxaborinine-8-carboxylic acid] | > 7.00 | > 7.00 | 6.00 to 7.00 | 6.00 to 7.00 | > 7.00 | –
NCCNC1CCC(O)(CC(=O)N[C@H]2Cc3cccc(C(=O)O)c3OB2O)CC1 (stereo partly shown) [Example 43, 3-{2-[4-(2-Amino-ethylamino)-1-hydroxy-cyclohexyl]-acetylamino}-2-hydroxy-3,4-dihydro-2H-benzo[e][1,2]oxaborinine-8-carboxylic acid] | > 7.00 | > 7.00 | > 7.00 | > 7.00 | > 7.00 | –
N=C(N)NC[C@H]1CC[C@H](CC(=O)N[C@H]2Cc3cccc(C(=O)O)c3OB2O)CC1 [Example 4, (R)-3-(2-(trans-4-(guanidinomethyl)cyclohexyl)acetamido)-2-hydroxy-3,4-dihydro-2H-benzo[e][1,2]oxaborinine-8-carboxylic acid] | > 7.00 | > 7.00 | > 7.00 | 6.00 to 7.00 | > 7.00 | –
N=C(N)N[C@H]1CC[C@H](CC(=O)N[C@H]2Cc3cccc(C(=O)O)c3OB2O)CC1 [Example 9, (R)-3-(2-(trans-4-guanidinocyclohexyl)acetamido)-2-hydroxy-3,4-dihydro-2H-benzo[e][1,2]oxaborinine-8-carboxylic acid] | > 7.00 | > 7.00 | > 7.00 | 6.00 to 7.00 | > 7.00 | –
CNCCN[C@H]1CC[C@H](C(CO)C(=O)N[C@H]2Cc3cccc(C(=O)O)c3OB2O)CC1 (stereo partly drawn) [Example 64, (R)-2-hydroxy-3-(3-hydroxy-2-(trans-4-(2-(methylamino)ethylamino)cyclohexyl)propanamido)-3,4-dihydro-2H-benzo[e][1,2]oxaborinine-8-carboxylic acid] | > 7.00 | > 7.00 | 6.00 to 7.00 | > 7.00 | > 7.00 | –
O=C(C[C@H]1CC[C@H](NCCNC2CCCC2)CC1)N[C@H]1Cc2cccc(C(=O)O)c2OB1O [Example 73, (R)-3-(2-(trans-4-(2-(cyclopentylamino)ethylamino)cyclohexyl)acetamido)-2-hydroxy-3,4-dihydro-2H-benzo[e][1,2]oxaborinine-8-carboxylic acid] | > 7.00 | > 7.00 | > 7.00 | > 7.00 | > 7.00 | –
N[C@@H](C(=O)N[C@H]1Cc2cccc(C(=O)O)c2OB1O)C1CCCCC1 [Example 42, (R)-3-((R)-2-amino-2-cyclohexylacetamido)-2-hydroxy-3,4-dihydro-2H-benzo[e][1,2]oxaborinine-8-carboxylic acid] | 6.00 to 7.00 | 6.00 to 7.00 | > 7.00 | 5.00 to 6.00 | > 7.00 | –
CC(NC(=O)C1C[C@H](N)[C@@H](N)C1)C(=O)N[C@H]1Cc2cccc(C(=O)O)c2OB1O (stereo partly shown) [Example 38] | > 7.00 | 6.00 to 7.00 | 6.00 to 7.00 | 6.00 to 7.00 | > 7.00 | –
NCCNC1CC(CC(=O)N[C@H]2Cc3cccc(C(=O)O)c3OB2O)C1 (stereo partly drawn) [Example 55, (R)-3-(2-(3-(2-aminoethylamino)cyclobutyl)acetamido)-2-hydroxy-3,4-dihydro-2H-benzo[e][1,2]oxaborinine-8-carboxylic acid] | > 7.00 | > 7.00 | > 7.00 | > 7.00 | > 7.00 | –
O=C(C[C@H]1CC[C@H](N2C=NCC2)CC1)N[C@H]1Cc2cccc(C(=O)O)c2OB1O [Example 29, (R)-3-(2-(trans-4-(4,5-dihydro-1H-imidazol-1-yl)cyclohexyl)acetamido)-2-hydroxy-3,4-dihydro-2H-benzo[e][1,2]oxaborinine-8-carboxylic acid] | > 7.00 | > 7.00 | > 7.00 | 6.00 to 7.00 | > 7.00 | –
NCCN[C@H]1CC[C@H](CC(=O)N[C@@H]2Cc3cccc(C(=O)O)c3OB2O)CC1 [Example 50, (S)-3-(2-(trans-4-(2-aminoethylamino)cyclohexyl)acetamido)-2-hydroxy-3,4-dihydro-2H-benzo[e][1,2]oxaborinine-8-carboxylic acid] | 6.00 to 7.00 | 6.00 to 7.00 | 6.00 to 7.00 | 6.00 to 7.00 | 6.00 to 7.00 | –
N[C@H]1CC(CC(=O)N[C@H]2Cc3cccc(C(=O)O)c3OB2O)C[C@@H]1N [Example 37] | 5.00 to 6.00 | > 7.00 | > 7.00 | 6.00 to 7.00 | > 7.00 | –
O=C(CC1CCC(NC2CNC2)CC1)N[C@H]1Cc2cccc(C(=O)O)c2OB1O (stereo partly drawn) [Example 36, (3R)-3-(2-(4-(azetidin-3-ylamino)cyclohexyl)acetamido)-2-hydroxy-3,4-dihydro-2H-benzo[e][1,2]oxaborinine-8-carboxylic acid] | – | > 7.00 | > 7.00 | 5.00 to 6.00 | – | > 7.00
N=C(N)N1CCN([C@H]2CC[C@H](CC(=O)N[C@H]3Cc4cccc(C(=O)O)c4OB3O)CC2)CC1 [Example 24, (R)-3-(2-(trans-4-(4-carbamimidoylpiperazin-1-yl)cyclohexyl)acetamido)-2-hydroxy-3,4-dihydro-2H-benzo[e][1,2]oxaborinine-8-carboxylic acid] | – | > 7.00 | > 7.00 | 5.00 to 6.00 | – | > 7.00
NC1CN(C2CCC(CC(=O)N[C@H]3Cc4cccc(C(=O)O)c4OB3O)CC2)C1 (stereo partly drawn) [Example 35, (3R)-3-(2-(4-(3-aminoazetidin-1-yl)cyclohexyl)acetamido)-2-hydroxy-3,4-dihydro-2H-benzo[e][1,2]oxaborinine-8-carboxylic acid] | – | > 7.00 | > 7.00 | 6.00 to 7.00 | – | > 7.00
N=C(N)NC1CN(C2CCC(CC(=O)N[C@H]3Cc4cccc(C(=O)O)c4OB3O)CC2)C1 (stereo partly drawn) [Example 41, (3R)-3-(2-(4-(3-guanidinoazetidin-1-yl)cyclohexyl)acetamido)-2-hydroxy-3,4-dihydro-2H-benzo[e][1,2]oxaborinine-8-carboxylic acid] | – | > 7.00 | > 7.00 | 6.00 to 7.00 | – | > 7.00
O=C(CC1CCC(O)CC1)N[C@H]1Cc2cccc(C(=O)O)c2OB1O (stereo partly drawn) [Example 47, (3R)-2-hydroxy-3-(2-(4-hydroxycyclohexyl)acetamido)-3,4-dihydro-2H-benzo[e][1,2]oxaborinine-8-carboxylic acid] | – | > 7.00 | > 7.00 | 5.00 to 6.00 | – | > 7.00
